Reference: patent publication US20030166609A1, “Medicine containing polysacccharide substances for activating apoptosis” (priority 2000, published 2003)
One block for each substance: values may come before it.

Columns and labels:
Type in all cases: cell-based, human
[1] = test system: Fas receptors at the surface of T lymphocytes (of the Jurkat type); assay: Fas receptors at the surface of Jurkat-type T lymphocytes, fluorescence by flow cytometry
Procedure: Work was carried out on a culture of immortalized human cells consisting of T lymphocytes (of the Jurkat type).
The medium used for culturing the Jurkat-type cells is that marketed by the company Life Technologies under the name “RPMI 1640 Medium”; this medium is described by Moore et al. in the publication “A.M.A.” 199, 519 (1967).
10^6 T lymphocytes of the Jurkat type were suspended in 5 ml of this medium. The culturing was carried out in an incubator at a temperature of 37° C. and in an atmosphere containing 5% CO2.
After incubation for 24 hours, the cells multiplied to reach 2×10^6 cells.
(§1) These cells are recovered by centrifugation, and are washed in an isotonic PBS buffer. A further incubation of these 2×10^6 cells is then carried out in 1 ml of the abovementioned medium at 4° C. and in an atmosphere containing 5% CO2, for 45 minutes in the presence of an anti-Fas receptor, sold under the catalog number 05-201 by Euromedex, diluted to 1/50 in PBS containing 1% of bovine serum albumin (BSA).
At the end of this incubation, the cells are collected and are washed with the isotonic PBS buffer. After washing, a further incubation of the cells is carried out for 45 minutes at 4° C. in the presence of an antibody against hamster immunoglobulins (IgGs) (produced in the goat) which is coupled to fluorescein isothiocyanate, diluted to 1/50 in PBS containing 1% of BSA (marketed by Euromedex, No. AP128F).
Controls were prepared by incubating the T lymphocytes of the Jurkat type only with the second antibody (goat anti-hamster IgG coupled to fluorescein isothio-cyanate).
The increase in the number of Fas receptors at the surface of the cells, under the action of dextran sulfate, is then determined.
Consequently, the fluorescence of the cells (which is proportional to the number of receptors present at the surface) is determined in the absence of dextran sulfate and in the presence of dextran sulfate for a number of solutions at various concentrations. The ratio of the fluorescence in the absence of dextran sulfate to the fluorescence with dextran sulfate is then calculated. In the following text, the result of this calculation is called “ratio”.
Various assays are carried out by introducing into the culture medium, at time t=0 of the experiment, dextran sulfate at the following doses: 0.2 mg/ml, 0.1 mg/ml, 0.02 mg/ml and 0.002 mg/ml; the dextran sulfate is that marketed by the company Sigma.
After various times of incubation with the dextran sulfate, the presence of Fas receptors at the surface of the cells is detected by fluorescence. This fluorescence is induced by the fluorescein isothio-cyanate coupled to the anti-Fas receptor antibodies which are attached to the Fas receptors, and was measured by passing a cell sample containing 10^4 cells through a device such as those which function by flow cytometry, in this case that marketed by the company Beckton Dickinson under the name “FACS Scan Flow Cytometer”. The intensity of the fluorescence, which is expressed in arbitrary units, therefore depends on the number of Fas receptors present at the surface of the cells making up the sample.
For each sample, the curve representing the variation in fluorescence as a function of said number of cells having receptors at their surface is constructed on a graph on which the fluorescence (arbitrary units) is recorded on the X axis and the number of cells (to within one multiplication factor) having receptors at their surface is recorded on the Y axis; this curve reflects a Gaussian-type distribution of the fluorescence.
The various assays carried out make it possible to classify the cell populations as a function of the fluorescence, i.e. as a function of the number of receptors present at the surface of the cells.
The different maximum fluorescence values for each assay, which reflect the different numbers of receptors present at the surface, depend on the active products used in the various assays. […]

[2] = test system: Fas receptors at the surface of Hep-G2 liver cells; assay: Fas receptors at the surface of Hep-G2 liver cells, fluorescence by flow cytometry; details: for Fluorescence Ratio: vs control
Procedure: Work was carried out on a culture of liver cells named Hep-G2 (marketed by ECACC (European collection of human genetic cell lines)).
The same procedure is carried out as in example 1, replacing the T lymphocytes of the Jurkat type with Hep-G2 liver cells.
The presence of Fas receptors at the surface of the cells was measured by fluorescence, as in example 1, and the results obtained are expressed as in example 1, in the form of FIGS. 9 to 12. […]
For this, the same procedure as in example 1 was carried out.

[3] = test system: TNF alpha receptors (p55 TNF receptor) on Jurkat-type cells; assay: TNF alpha receptors at the surface of Jurkat-type cells, fluorescence by flow cytometry
Procedure: In this example, the effect of dextran sulfate at a concentration of 0.1 mg/ml on the increase in the number of TNF alpha receptors on Jurkat-type cells was measured.
The medium used for culturing the Jurkat-type cells is that marketed by the company Life Technologies under the name “RPMI 1640 medium”; this medium is described by Moore et al. in the publication “A.M.A.” 199, 519 (1967).
10^6 T lymphocytes are suspended in 5 ml of this medium. The culturing was carried out in an incubator at a temperature of 37° C. and in an atmosphere containing 5% CO2. After incubation for 24 hours, the cells multiplied to reach 2×10^6 cells.
as §1, with “incubation” for “incubation of these 2×10^6 cells”, “anti-human p55 TNF” for “anti-Fas”, “clone MR1-2, ref. MON9062 produced in mice” for “sold under the catalog number 05-201”, “Genzyme SA,” for “Euromedex,”
The cells are recovered and are washed with the isotonic PBS buffer. A further incubation is carried out with an antibody against mouse immunoglobulins (IgGs) (produced in the goat) coupled to fluorescein isothiocyanate, diluted to 1/50 in PBS containing 1% of BSA. […]
The influence of the dextran sulfate is determined by introducing 0.1 mg of dextran sulfate per ml into the culture medium.
The presence of TNF alpha receptors at the surface of the cells was measured by fluorescence as in the previous examples.
In FIG. 17, in which the Y-axis represents the number (to within one multiplication factor) of TNF alpha receptors at the surface of the cells, and in which the X-axis represents the intensity of fluorescence (arbitrary units), the Gaussian distribution of the fluorescence for the control sample (curve T1) and for the sample which was incubated in the presence of 0.1 mg/ml of dextran sulfate (curve C17) is represented in the form of a curve.

[4] = Hep-G2, 0.02 mg/ml dextran sulfate (0.2 mg/ml given in source), 6 h (curve C13)
[5] = Hep-G2, 0.02 mg/ml dextran sulfate (0.2 mg/ml given in source), 24 h (curve C14)
[6] = Hep-G2, 0.02 mg/ml dextran sulfate (0.2 mg/ml given in source), 48 h (curve C15)
[7] = Hep-G2, 0.02 mg/ml dextran sulfate (0.2 mg/ml given in source), 72 h (curve C16)
[8] = Hep-G2, dextran sulfate 0.002 mg/ml (curve C12)
[9] = Hep-G2, dextran sulfate 0.02 mg/ml (curve C11)
[10] = Hep-G2, dextran sulfate 0.1 mg/ml (curve C10)
[11] = Hep-G2, dextran sulfate 0.2 mg/ml (curve C9)

Fluorescence Value measured (peak of curve) ([1]; Ic 0.2 mg/ml, 6 h): 80 arbitrary units | Fluorescence Ratio ([1]; Ic 0.2 mg/ml, 6 h, vs control): 1.3 | Fluorescence Value measured (peak of curve) ([1]; Ic 0.2 mg/ml, 24 h): 180 arbitrary units | Fluorescence Ratio ([1]; Ic 0.2 mg/ml, 24 h, vs control): 2.7 | Fluorescence Value measured (peak of curve) ([1]; Ic 0.2 mg/ml, 48 h): 125 arbitrary units | Fluorescence Ratio ([1]; Ic 0.2 mg/ml, 48 h, vs control): 2.1 | Fluorescence Value measured (peak of curve) ([1]; Ic 0.2 mg/ml, 72 h): 100 arbitrary units | Fluorescence Ratio ([1]; Ic 0.2 mg/ml, 72 h, vs control): 1.7
Substance: iota-carrageenan [Ic]
incubation time of the maximum of the increase in the number of Fas receptors at the cell surface ([1]; Ic 0.2 mg/ml): 24 h

Fluorescence Value measured (peak of curve) ([1]; 0.02 mg/ml dextran sulfate, 6 h (curve C41)): 100 arbitrary units | Fluorescence Ratio ([1]; 0.02 mg/ml dextran sulfate, 6 h (curve C41), vs control): 2 | Fluorescence Value measured (peak of curve) ([1]; 0.02 mg/ml dextran sulfate, 24 h (curve C42)): 120 arbitrary units | Fluorescence Ratio ([1]; 0.02 mg/ml dextran sulfate, 24 h (curve C42), vs control): 2.4 | Fluorescence Value measured (peak of curve) ([1]; 0.02 mg/ml dextran sulfate, 48 h (curve C43)): 150 arbitrary units | Fluorescence Ratio ([1]; 0.02 mg/ml dextran sulfate, 48 h (curve C43), vs control): 3 | Fluorescence Value measured (peak of curve) ([1]; 0.02 mg/ml dextran sulfate, 72 h (curve C44)): 80 arbitrary units | Fluorescence Ratio ([1]; 0.02 mg/ml dextran sulfate, 72 h (curve C44), vs control): 1.6 | Fluorescence Value measured (peak of curve) ([1]; dextran sulfate 0.002 mg/ml (curve C5)): 90 arbitrary units | Fluorescence Ratio ([1]; dextran sulfate 0.002 mg/ml (curve C5), vs control): 1.13 | Fluorescence Value measured (peak of curve) ([1]; dextran sulfate 0.02 mg/ml (curve C4)): 200 arbitrary units | Fluorescence Ratio ([1]; dextran sulfate 0.02 mg/ml (curve C4), vs control): 2.50 | Fluorescence Value measured (peak of curve) ([1]; dextran sulfate 0.1 mg/ml (curve C3)): 250 arbitrary units | Fluorescence Ratio ([1]; dextran sulfate 0.1 mg/ml (curve C3), vs control): 3.13 | Fluorescence Value measured (peak of curve) ([1]; dextran sulfate 0.2 mg/ml (curve C2)): 250 arbitrary units | Fluorescence Ratio ([1]; dextran sulfate 0.2 mg/ml (curve C2), vs control without dextran sulfate): 3.13
Substance: dextran sulfate
incubation time of the maximum of the increase in the number of Fas receptors at the cell surface ([1]; 0.02 mg/ml dextran sulfate): 48 h | minimum concentration for increase in the number of Fas receptors at the cell surface ([1]; at greater dilution effect too diminished, higher concentration does not enhance): 0.02 mg/mL | minimum concentration for increase in the number of Fas receptors at the cell surface ([2]; Hep-G2): 0.02 mg/mL | optimum concentration for increase in the number of Fas receptors at the cell surface ([2]; Hep-G2): 0.1 mg/mL | Fluorescence Value measured (peak of curve) [2, 4]: 40 arbitrary units | Fluorescence Ratio [2, 4]: 1.6 | Fluorescence Value measured (peak of curve) [2, 5]: 50 arbitrary units | Fluorescence Ratio [2, 5]: 2 | Fluorescence Value measured (peak of curve) [2, 6]: 70 arbitrary units | Fluorescence Ratio [2, 6]: 2.8 | Fluorescence Value measured (peak of curve) [2, 7]: 50 arbitrary units | Fluorescence Ratio [2, 7]: 2 | incubation time of the maximum of the increase in the number of Fas receptors at the cell surface ([2]; Hep-G2, dextran sulfate): 48 h | Fluorescence Value measured (peak of curve) [2, 8]: 60 arbitrary units | Fluorescence Ratio [2, 8]: 1 | Fluorescence Value measured (peak of curve) [2, 9]: 120 arbitrary units | Fluorescence Ratio [2, 9]: 2 | Fluorescence Value measured (peak of curve) [2, 10]: 140 arbitrary units | Fluorescence Ratio [2, 10]: 2.3 | Fluorescence Value measured (peak of curve) [2, 11]: 160 arbitrary units | Fluorescence Ratio [2, 11]: 2.7 | Fluorescence Value measured (peak of curve) ([3]; TNF alpha receptors, dextran sulfate 0.1 mg/ml (curve C17)): 200 arbitrary units | Fluorescence Ratio ([3]; TNF alpha receptors, dextran sulfate 0.1 mg/ml, vs control): 1.14 | increase in the number of TNF alpha receptors at the surface ([3]; dextran sulfate 0.1 mg/ml, called weak): 10%
